The values below come from patent publication US20200291082A1, “PREVENTION AND TREATMENT OF GRAFT-VERSUS-HOST-DISEASE WITH DEFENSINS” (priority 2017, published 2020).

Data set [1] deals with Dextran Sodium Sulphate induced colitis. The data set can be described thus: prophylactic murine 10-day oral Dextran Sodium Sulphate induced colitis model, oral hBD2 versus oral prednisolone (Example 2). Format: in vivo, C57BL/6 mice. The note with it: versus vehicle; Prednisolone 1 mg/kg twice per day p.o.; oral hBD2 all doses. On the procedure: Anti-inflammatory effect of oral administration of hBD2 versus oral prednisolone in a prophylactic murine, 10-day, oral Dextran Sodium Sulphate induced colitis model.
50 male C57BL/6 mice housed in groups of five per cage were allocated to 5 different treatment groups. All animals had their drinking water supplemented with DSS 2% for 7 days to induce colitis resulting in significant inflammation and injury of the colonic tissue. The animals were treated with oral hBD2 dosed at three different dose levels twice per day or prednisolone 1 mg/kg twice per day or PBS as vehicle for 10 days.
(§1) A disease activity index (DAI) scoring system was applied for clinical assessment (FIG. 7). The animals were sacrificed on day 10 and colon removed for histological assessment employing a histological scoring system (FIG. 8).

In data set [2] the test system is Trinitrobenzene Sulfonic Acid induced colitis. Nature of the data set: prophylactic murine 8-day Trinitrobenzene Sulfonic Acid induced colitis model (Example 3). Format: in vivo, BALB/cByJ mice. The note with it: Prednisolone 10 mg/kg s.c. once daily; hBD2 at 0.1, 0.3 and 1 mg/kg s.c. once daily. How it is done:
Anti-inflammatory effect of s.c. administration of hBD2 versus s.c. prednisolone in a prophylactic murine, 8-day Trinitrobenzene Sulfonic Acid induced colitis model.
105 male BALB/cByJ mice housed in groups of five per cage were allocated to 7 different treatment groups. Colitis was induced by intracolonic administration of trinitrobenzene sulfonic acid on day 0 under light anaesthesia resulting in significant inflammation and injury of the colonic tissue. The animals were treated with hBD2 at four different dosing levels once daily (1 mg/kg, 0.3 mg/kg, 0.1 mg/kg, and 0.03 mg/kg) or Prednisolone 10 mg/kg once daily dosed subcutaneously under the dorsal skin or PBS as vehicle for 7 days.
as §1

Data set [3] relates to gut microbiota in high fat diet murine model. The data set can be described thus: prophylactic treatment with defensins in murine high fat diet model, gut microbiota (Example 7). Format: in vivo, mice. The text has this:
Protection and preservation of gut microbiota by prophylactic treatment with defensins. Mice: Mice were housed in trios, 4 cages per group. Feed intake was registered daily just before lights were turned off at 6 pm. Individual mice were subjected to experimental procedures in altered order both group and cage wise. Mice were kept at room temperature under a 12-hour light/dark cycle at SPF standard conditions. Diets: For dosing, the average weight was estimated to be 25 grams per mouse. Mice eat approximately 3 grams of feed per mouse per day. Treatment regime: Mice were fed either a high fat diet (HFD) or a low fat (LF) control diet. The HFD contained 4 subgroups; 1 hBD2, 1 HD5, 1 hBD2/HD5 and 1 standard HFD without supplementation of defensins (FIG. 3). Defensin concentration was 1,2 mg hBD2 per kg mouse per day. HD5 was given in equimolar concentration to hBD2. […] Microbial analyses were carried out to study the microbiota of the intestine. Longitudinal 16S characterization was conducted on 4 paired samples from 60 mice, 240 samples in total. Each mouse was sampled prior to diet change, 1 week post diet change, 4 weeks post diet change and at termination, thus ensuring a thorough characterization of the faecal microbiota as a result of defensin treatment.

The subject of data set [4] is microbiota in diet-induced obese mice. Nature of the data set: interventional treatment of dysbiosis with defensins in diet-induced obese mice (Example 8). Type of data set: in vivo. From the text: Mice and diets. The experiment elucidates the effect of hBD2 and HD5 on the microbiota in diet-induced obese mice. A run-in period of 13 weeks where mice were fed a very HFD (60% energy from fat) preceded the intervention. Only mice meeting the criteria of a minimum of 12 gram weight gain (approximately 50% of initial bodyweight) during the run-in period were included in the final analyses. […] They were exposed to all experimental tests, but excluded from the analyses.
Treatment regimen. Before the intervention all mice were MR scanned. Cages of mice were allocated to experimental groups based on their fat mass. All subsequent measures were paired with data from the same mouse before the intervention. A LFD (low fat diet) reference group was running in parallel. As controls for the intervention 2 additional groups were included: 1 very HFD and 1 LFD. Experimental mice stayed on the very HFD during the intervention (FIG. 3). The mice were on the experimental diet for 10 weeks. They were co-housed throughout the experiment, 4 mice per cage, 3 cages per group. All tests ran over 3 days, 1 cage per group per day.
Tests. Microbial analyses were carried out to study the microbiota of the intestine.
Longitudinal 16S characterization was conducted on 4 paired samples from 60 mice, 240 samples in total. Each mouse was sampled prior to diet change, 1 week post diet change, 4 weeks post diet change and at termination, thus ensuring a thorough characterization of the faecal microbiota as a result of defensin treatment.

Data set [5] deals with acute graft versus host disease following stem cell transplantation. Nature of the data set: prophylactic oral HD5 or hBD-2 in murine model of acute graft versus host disease (Example 15). Format: in vivo, BALB/c mice. How it is done: To determine and assess the efficacy of prophylactic treatment with oral HD5 in a murine model of acute graft versus host disease following stem cell transplantation.
Treatment regime: 22 female BALB/c mice were irradiated with 4.5 Gy (2×498 sec) at intervals of at least 4 hours on day 0. Bone marrow was harvested: hind limbs harvested from 2 female WT C57BL/6 mice aseptically. Skeletal muscle was removed and epiphysis cut away. Lumen of bone flushed with PBS and cells pelleted and taken up. Harvest of T-cells: spleens from 2 female WT C57BL/6 mice were meshed through a […] cell strainer into a PBS filled dish. Cells were taken up in PBS and transferred into a 50 mL falcon tube and spun down. Cells were taken up in 1 mL PBS and 20 μL of CD4 microbead+20 μL CD8 microbeads per spleen added for incubation for 20 min at 4 degrees C. Cells were washed with PBS and applied to MACS separation in order to positively select CD4+ and CD8+ cells. Positively selected T-cells were counted and taken up. Transplantation: directly after the second irradiation, all WT BALB/c recipient mice were injected with 5×1.000.000 BM cells (50 μL) i.v. into the retroorbital venous plexus under isoflurane anesthesia. 22 BALB/c mice were treated with 1.2 mg of HD5/kg BW/day; 1.2 mg of hBD-2/kg BW/day or 100 μL of PBS per day vial oral gavage from day 0-10.
Survival was monitored for 60 days.

Data set [6] deals with bacteria at the surface of the intestinal mucosa. The data set can be described thus: anti microbial effect of orally administered defensins, mucin immunostaining and localization of bacteria by FISH (Example 16). Format: in vivo. Conditions: compared with mice on low fat or western diet. How it is done: Anti microbial effect of orally administered defensins (HD5 and hBD-2).
Mucus immunostaining was paired with fluorescent in situ hybridization (FISH), as previously described in order to analyze bacteria localization at the surface of the intestinal mucosa. Briefly, colonic tissues (proximal colon, 2nd cm from the cecum) without fecal material were placed in methanol-Carnoy's fixative solution (60% methanol, 30% chloroform, 10% glacial acetic acid) for a minimum of 3 hours at room temperature. Tissues were then washed in methanol 2×30 min, ethanol 2×15 min, ethanol/xylene (1:1), 15 min and xylene 2×15 min, followed by embedding in Paraffin with a vertical orientation. Five pm sections were performed and dewax by preheating at 60° C. for 10 min, followed by xylene 60° C. for 10 min, xylene for 10 min and 99.5% ethanol for 10 minutes. Hybridization step was performed at 50° C. overnight with EUB338 probe (5′-GCTGCCTCCCGTAGGAGT-3′, with a 5′ labeling using Alexa 647) diluted to a final concentration of 10 μg/mL in hybridization buffer (20 mM Tris-HCl, pH 7.4, 0.9 M NaCl, 0.1% SDS, 20% formamide). After washing 10 min in wash buffer (20 mM Tris-HCl, pH 7.4, 0.9 M NaCl) and 3×10 min in PBS, PAP pen (Sigma-Aldrich) was used to mark around the section and block solution (5% fetal bovine serum in PBS) was added for 30 min at 4° C. […]

Data set [7] relates to CD4+CD25+ Tcell transfer induced colitis. The data set can be described thus: therapeutic murine 14 weeks CD4+CD25+ Tcell transfer induced colitis model (Example 6). Type of data set: in vivo, SCID mice. The note with it: hBD2 1 mg/kg s.c. OD, Dexamethasone 0.3 mg/kg i.p. OD, Enbrel 100 μg/mouse s.c. twice weekly. The text has this:
Efficacy of s.c. administration of hBD2 versus s.c. anti TNF-α (Enbrel) and intraperitoneal dexamethasone in a therapeutic, murine, 14 weeks, CD4+CD25+ Tcell transfer induced colitis model.
70 female BALB/c mice housed in groups of five per cage were allocated to 7 different treatment groups. Colitis was induced in SCID mice by transplantation of CD4+CD25+ Tcells from BALB/c mice. Lymphocytes isolated from spleen and lymph nodes from BALB/c mice were subjected to negative selection of CD4+ Tcells. Afterwards, CD4+CD25+ cells were positively isolated by binding to the beads from the CD4+ Tcell suspensions and the CD4+CD25− were collected from the supernatant. The animals were treated with hBD2, 0.1 mg/kg s.c. OD; 1 mg/kg s.c. OD or 3 mg/kg s.c. OD or with mouse anti TNFα 100 μg/mouse s.c. twice weekly or with dexamethasone 0.3 mg/kg intraperitoneally OD or PBS s.c. as vehicle from day 7 and 86 consecutive days.
Clinical assessment was based on body weight loss, stool consistency and presence of blood per rectum. The animals were sacrificed on day 95 and colon removed for assessment of weight and myeloperoxidase activity.

The subject of data set [8] is house dust mite model of allergic asthma. The data set can be described thus: therapeutic intranasal versus oral hBD2 in murine house dust mite model of allergic asthma (Example 10). Type of data set: in vivo, BALB/c mice. The note with it: dexamethasone 1 mg/kg BID oral; hBD2 both IN doses (0.4 mg/kg/day TID and 1.7 mg/kg/day TID). How it is done: To determine and assess the efficacy of IN versus oral therapeutic intervention with defensins in a murine house dust mite model of allergic asthma.
Treatment regime: Female 7-10 weeks old BALB/c mice were randomly allocated into 7 study groups one day prior to study start and subcutaneously (SC) sensitized to house dust mite (100 μg HDM in 200 μL saline plus Freund's complete adjuvant in 0.9% saline). Mice were then intranasally (IN) challenged with HDM on day 14 (HDM 25 μg in 50 μL of saline). Dexamethasone was administered orally (1 mg/kg BID; 50 μL phosphate buffered saline (PBS)) on day 14. hBD2 was administered IN or orally (1.7 mg/kg TID IN; 0.4 mg/kg TID IN; 0.4 mg/kg TID orally, 50 μL phosphate buffered saline) on day 14. The initial dose was administered 60 minutes prior to challenge, and the subsequent doses approximately 6 hours apart (FIG. 5).
Airway inflammation: At 48 hours post challenge, bronchoalveolar lavage was performed washing the lungs with 3 volumes of cold PBS (0.4; 0.3 and 0.3 mL, total 1 mL). Total and differential leucocyte cell counts were determined on an automated haematological analyser Sysmex XT-2000iV.
Data are represented as airway resistance at […] methacholine and as dose responsive curves.
Lung sampling for cytokine analysis: After completion of every BAL, lungs were removed from the thorax, snap frozen in liquid nitrogen and stored frozen at −80 degrees Celsius until analysis of cytokine concentration of IL-1β, TNF-α, IL-6, IL-10 and IFNγ by ELISA.

Where [9] appears, read: HFD plus HD5, after dietary intervention.

Turning to `C[C@]12C=CC(=O)C=C1CC[C@@H]1[C@@H]2[C@@H](O)C[C@@]2(C)[C@H]1CC[C@]2(O)C(=O)CO` [Prednisolone, reference compound], the histological score result in data set [1] is on record as “statistically significant effect on histological score”; in data set [2] it was “highly statistically significant clinical effect on histological score”.

As for “human intestinal alpha defensin 5 (ATCYCRTGRCATRESLSGVCEISGRLYRLCCR; listed as Homo sapiens) [HD5]”, in data set [3] (prophylactic oral defensins in high fat diet), the “microbial presence and abundance (unifrac analysis)” value is “affected primarily the microbial abundance”. Moreover, in data set [3] (small intestine, prophylaxis with HD5), the “abundance of Allobaculum” value is recorded as “statistically significant increase of abundance of Allobaculum”. Besides, in data set [4] (HFD plus HD5, 4 weeks after dietary change, versus HFD control), the fat percentage result was “significantly lower fat percentage”. In data set [4] (setting [9]), the fat percentage entry is on record as “tendency of decreasing fat percentage” and the weight gain result is recorded as “gained significantly less weight than the HFD control”. Further, the “abundance of Alloprevotella” value in data set [4] (colon) is reported as “increased the abundance of Alloprevotella statistically significantly”. The “relative abundance of Bifidobacteriaceae” value in data set [4] (small intestine) is listed as “trend towards HD5 increasing the abundance”. Moreover, the mortality entry in data set [5] (FIG. 58, oral treatment for 10 days from day of stem cell transplantation) is listed as “significant reduction of mortality”. The “treated animals that had died by day 60” value in data set [5] (oral 1.2 mg/kg/day day 0-10, six out of eight PBS mice died) is listed as 2 out of 8. Further, the “lysis zone, distance between intestinal wall and bacterial population” value in data set [6] is reported as “profound effect on the distance”.

Enbrel [reference compound]: in data set [7] (colon, day 95), the myeloperoxidase activity result is “statistically significant and similar effect”. In addition, in data set [7], the “clinical score (body weight loss, stool consistency, presence of blood per rectum)” value is “statistically significant and similar effect on clinical score”. Also, in data set [7] (day 95), the colon weight entry was “statistically significant and similar effect on colon weight”.

As to `C[C@@H]1C[C@H]2[C@@H]3CCC4=CC(=O)C=C[C@]4(C)[C@@]3(F)[C@@H](O)C[C@]2(C)[C@@]1(O)C(=O)CO` [Dexamethasone, reference compound], in data set [8], the “macrophage counts in BALF” value is “failed to inhibit” and the “neutrophil counts in BALF” value was “failed to inhibit”.
